Target: CDK4 (Homo sapiens, UniProt P11802+Q16531)
Assay: CDK4 percentage degradation in Calu-1 cells (Table 6)
Assay type: cell-based
Set-up: Cells that express cyclin D1-3 and CDK4/6 proteins were treated with heterobifunctional compounds; endogenous in cells; host or cells: Calu-1
Details: 16 hours; for inhibition at 0.04 µM: 40 nM; for inhibition at 0.2 µM: 200 nM
Outline: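 Calu-1 cells exposed to heterobifunctional compounds at 40 nM or 200 nM for 16 h. Cyclin D1 and CDK4 levels measured by Western blot of RIPA lysates (BCA-normalised loading), bands quantified by densitometry and expressed as percentage degradation.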

CDK4, sequence (P11802 2-303 limits assumed): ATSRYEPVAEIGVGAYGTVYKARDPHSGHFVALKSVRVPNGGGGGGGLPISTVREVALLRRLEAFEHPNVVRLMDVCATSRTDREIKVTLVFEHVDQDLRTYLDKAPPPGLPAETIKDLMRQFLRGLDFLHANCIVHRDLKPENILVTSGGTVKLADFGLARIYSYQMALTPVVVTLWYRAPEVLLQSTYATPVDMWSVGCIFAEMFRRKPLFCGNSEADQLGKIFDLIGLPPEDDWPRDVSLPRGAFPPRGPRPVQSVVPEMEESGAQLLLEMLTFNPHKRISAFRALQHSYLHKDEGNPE
CDK4, sequence (P24385 whole entry partner): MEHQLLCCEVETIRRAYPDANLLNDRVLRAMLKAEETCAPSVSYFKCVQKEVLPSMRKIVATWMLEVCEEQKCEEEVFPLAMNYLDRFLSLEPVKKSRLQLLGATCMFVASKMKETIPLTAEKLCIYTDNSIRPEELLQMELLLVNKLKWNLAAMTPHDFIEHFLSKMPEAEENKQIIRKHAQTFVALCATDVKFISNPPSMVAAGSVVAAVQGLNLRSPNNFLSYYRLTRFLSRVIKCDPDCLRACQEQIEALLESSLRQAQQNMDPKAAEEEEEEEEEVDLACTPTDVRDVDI
CDK4, sequence (Q16531 2-1140 limits assumed): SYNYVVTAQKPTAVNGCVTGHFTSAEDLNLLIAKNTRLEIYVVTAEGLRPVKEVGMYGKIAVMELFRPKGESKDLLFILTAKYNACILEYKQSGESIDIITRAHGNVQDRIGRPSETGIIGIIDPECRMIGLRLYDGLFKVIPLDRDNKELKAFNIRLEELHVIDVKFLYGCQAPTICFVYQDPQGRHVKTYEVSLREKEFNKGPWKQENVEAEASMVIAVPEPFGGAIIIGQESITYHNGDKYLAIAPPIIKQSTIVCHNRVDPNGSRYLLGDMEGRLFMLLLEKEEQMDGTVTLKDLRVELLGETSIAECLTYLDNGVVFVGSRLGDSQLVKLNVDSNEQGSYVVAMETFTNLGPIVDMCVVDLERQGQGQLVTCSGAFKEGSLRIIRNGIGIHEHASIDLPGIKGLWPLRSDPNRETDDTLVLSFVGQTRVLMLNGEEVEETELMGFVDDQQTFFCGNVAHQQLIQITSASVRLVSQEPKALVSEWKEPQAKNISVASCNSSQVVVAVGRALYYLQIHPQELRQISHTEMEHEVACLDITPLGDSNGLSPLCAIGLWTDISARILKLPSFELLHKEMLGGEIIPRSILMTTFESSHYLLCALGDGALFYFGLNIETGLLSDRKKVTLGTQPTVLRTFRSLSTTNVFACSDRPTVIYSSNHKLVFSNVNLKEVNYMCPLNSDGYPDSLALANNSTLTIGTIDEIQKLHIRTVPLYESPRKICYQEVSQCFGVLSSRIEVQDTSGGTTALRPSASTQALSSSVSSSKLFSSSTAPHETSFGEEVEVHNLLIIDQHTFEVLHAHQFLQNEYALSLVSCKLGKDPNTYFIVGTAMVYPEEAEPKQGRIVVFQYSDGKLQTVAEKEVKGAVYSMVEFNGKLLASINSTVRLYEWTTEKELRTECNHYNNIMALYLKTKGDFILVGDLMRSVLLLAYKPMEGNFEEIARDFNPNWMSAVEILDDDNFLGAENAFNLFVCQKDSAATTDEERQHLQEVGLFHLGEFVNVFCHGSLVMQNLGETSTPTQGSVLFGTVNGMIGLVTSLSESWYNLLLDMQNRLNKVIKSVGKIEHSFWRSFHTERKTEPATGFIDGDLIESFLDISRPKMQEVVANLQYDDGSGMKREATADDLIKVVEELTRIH

Structure (SMILES) | inhibition at 0.04 µM [%] | inhibition at 0.2 µM [%]
CNc1ccc(C(=O)Nc2ccc(N(C)C)nc2)c(NCCCCCNC(=O)CN2CCN(c3ccc(Nc4ncc5c(C)c(C(C)=O)c(=O)n(C6CCCC6)c5n4)nc3)CC2)n1 [CPD-58, 2-((5-(2-(4-(6-((6-Acetyl-8-cyclopentyl-5-methyl-7-oxo-7,8-dihydropyrido[2,3-d]pyrimidin-2-yl)amino)pyridin-3-yl)piperazin-1-yl)acetamido)pentyl)amino)-N-(6-(dimethylamino)pyridin-3-yl)-6-(methylamino)nicotinamide] | 30 to 50 | 50 to 80
CNc1ccc(C(=O)Nc2ccc(N(C)C)nn2)c(NC2CC3(C2)CC(OC(C)(C)C(=O)N2CCN(c4ccc(Nc5ncc6c(C)c(C(C)=O)c(=O)n(C7CCCC7)c6n5)nc4)CC2)C3)n1 (stereo not shown) [CPD-216, 2-((6-((1-(4-(6-((6-acetyl-8-cyclopentyl-5-methyl-7-oxo-7,8-dihydropyrido[2,3-d]pyrimidin-2-yl)amino)pyridin-3-yl)piperazin-1-yl)-2-methyl-1-oxopropan-2-yl)oxy)spiro[3.3]heptan-2-yl)amino)-N-(6-(dimethylamino)pyridazin-3-yl)-6-(methylamino)nicotinamide] | 30 to 50 | 50 to 80
CCc1ccc(C(=O)Nc2cc(C)n(C)n2)c(NC2CC(CNC(=O)CN3CCN(c4ccc(Nc5ncc6c(C)c(C(C)=O)c(=O)n(C7CCCC7)c6n5)nc4)CC3)C2)n1 (stereo not shown) [CPD-210, 2-((3-((2-(4-(6-((6-acetyl-8-cyclopentyl-5-methyl-7-oxo-7,8-dihydropyrido[2,3-d]pyrimidin-2-yl)amino)pyridin-3-yl)piperazin-1-yl)acetamido)methyl)cyclobutyl)amino)-N-(1,5-dimethyl-1H-pyrazol-3-yl)-6-ethylnicotinamide] | 30 to 50 | 50 to 80
CNc1ccc(C(=O)Nc2ccnn2C)c(NC2CC3(CC(NC(=O)CN4CCN(c5ccc(Nc6ncc7c(C)c(C(C)=O)c(=O)n(C8CCCC8)c7n6)nc5)CC4)C3)C2)n1 (stereo not shown) [CPD-153, 2-((6-(2-(4-(6-((6-acetyl-8-cyclopentyl-5-methyl-7-oxo-7,8-dihydropyrido[2,3-d]pyrimidin-2-yl)amino)pyridin-3-yl)piperazin-1-yl)acetamido)spiro[3.3]heptan-2-yl)amino)-N-(1-methyl-1H-pyrazol-5-yl)-6-(methylamino)nicotinamide] | < 30 | < 30
CNc1ccc(C(=O)Nc2ccc(N(C)C)nn2)c(NCCC2CCN(C(=O)CN3CCN(c4ccc(Nc5ncc6c(C)c(C(C)=O)c(=O)n(C7CCCC7)c6n5)nc4)CC3)CC2)n1 [CPD-89, 2-((2-(1-(2-(4-(6-((6-Acetyl-8-cyclopentyl-5-methyl-7-oxo-7,8-dihydropyrido[2,3-d]pyrimidin-2-yl)amino)pyridin-3-yl)piperazin-1-yl)acetyl)piperidin-4-yl)ethyl)amino)-N-(6-(dimethylamino)pyridazin-3-yl)-6-(methylamino)nicotinamide] | 50 to 80 | 50 to 80
CC(=O)c1c(C)c2cnc(Nc3ccc(N4CCN(CC(=O)NC5CC6(C5)CC(Nc5nc(C#N)ccc5C(=O)Nc5cccc(C7CC7)n5)C6)CC4)cn3)nc2n(C2CCCC2)c1=O (stereo not shown) [CPD-141, 2-((6-(2-(4-(6-((6-Acetyl-8-cyclopentyl-5-methyl-7-oxo-7,8-dihydropyrido[2,3-d]pyrimidin-2-yl)amino)pyridin-3-yl)piperazin-1-yl)acetamido)spiro[3.3]heptan-2-yl)amino)-6-cyano-N-(6-cyclopropylpyridin-2-yl)nicotinamide] | < 30 | < 30
CNc1ccc(C(=O)Nc2ccc(N(C)C)nn2)c(NC2CC3(C2)CN(C(=O)CN2CCN(c4ccc(Nc5ncc6c(C)c(C(C)=O)c(=O)n(C7CCCC7)c6n5)nc4)CC2)C3)n1 [CPD-97] | 50 to 80 | > 80
CNc1ccc(C(=O)Nc2ccc(C)c(C)n2)c(NC2CC3(CC(NC(=O)CN4CCN(c5ccc(Nc6ncc7c(C)c(C(C)=O)c(=O)n(C8CCCC8)c7n6)nc5)CC4)C3)C2)n1 (stereo not shown) [CPD-182, 2-((6-(2-(4-(6-((6-acetyl-8-cyclopentyl-5-methyl-7-oxo-7,8-dihydropyrido[2,3-d]pyrimidin-2-yl)amino)pyridin-3-yl)piperazin-1-yl)acetamido)spiro[3.3]heptan-2-yl)amino)-N-(5,6-dimethylpyridin-2-yl)-6-(methylamino)nicotinamide] | 30 to 50 | 30 to 50
[2H]C([2H])([2H])Nc1ccc(C(=O)Nc2cc(C)on2)c(NC2CCN(C(=O)CN3CCN(c4ccc(Nc5ncc6c(C)c(C(C)=O)c(=O)n(C7CCCC7)c6n5)nc4)CC3)CC2)n1 [CPD-231, 2-((1-(2-(4-(6-((6-acetyl-8-cyclopentyl-5-methyl-7-oxo-7,8-dihydropyrido[2,3-d]pyrimidin-2-yl)amino)pyridin-3-yl)piperazin-1-yl)acetyl)piperidin-4-yl)amino)-6-((methyl-d3)amino)-N-(5-methylisoxazol-3-yl)nicotinamide] | 30 to 50 | 50 to 80
CNc1ccc(C(=O)Nc2ccc(N(C)C)nn2)c(NC2CC3(CC(CCC(=O)N4CCN(c5ccc(Nc6ncc7c(C)c(C(C)=O)c(=O)n(C8CCCC8)c7n6)nc5)CC4)C3)C2)n1 (stereo not shown) [CPD-82, 2-((6-(3-(4-(6-((6-Acetyl-8-cyclopentyl-5-methyl-7-oxo-7,8-dihydropyrido[2,3-d]pyrimidin-2-yl)amino)pyridin-3-yl)piperazin-1-yl)-3-oxopropyl)spiro[3.3]heptan-2-yl)amino)-N-(6-(dimethylamino)pyridazin-3-yl)-6-(methylamino)nicotinamide] | 30 to 50 | 30 to 50
CNc1ccc(C(=O)Nc2ccc(C(F)(F)F)c(C3CC3)n2)c(NC2CC3(CC(NC(=O)CN4CCN(c5ccc(Nc6ncc7c(C)c(C(C)=O)c(=O)n(C8CCCC8)c7n6)nc5)CC4)C3)C2)n1 (stereo not shown) [CPD-87, 2-((6-(2-(4-(6-((6-Acetyl-8-cyclopentyl-5-methyl-7-oxo-7,8-dihydropyrido[2,3-d]pyrimidin-2-yl)amino)pyridin-3-yl)piperazin-1-yl)acetamido)spiro[3.3]heptan-2-yl)amino)-N-(6-cyclopropyl-5-(trifluoromethyl)pyridin-2-yl)-6-(methylamino)nicotinamide] | < 30 | < 30
CNc1ccc(C(=O)Nc2cccc(=O)[nH]2)c(NC2CC3(CC(NC(=O)CN4CCN(c5ccc(Nc6ncc7c(C)c(C(C)=O)c(=O)n(C8CCCC8)c7n6)nc5)CC4)C3)C2)n1 (stereo not shown) [CPD-122, 2-((6-(2-(4-(6-((6-Acetyl-8-cyclopentyl-5-methyl-7-oxo-7,8-dihydropyrido[2,3-d]pyrimidin-2-yl)amino)pyridin-3-yl)piperazin-1-yl)acetamido)spiro[3.3]heptan-2-yl)amino)-6-(methylamino)-N-(6-oxo-1,6-dihydropyridin-2-yl)nicotinamide] | 30 to 50 | 50 to 80
CCc1ccc(C(=O)Nc2cccc(C3CC3)n2)c(NC2CC3(CC(NC(=O)CN4CCN(c5ccc(Nc6ncc7c(C)c(C(C)=O)c(=O)n(C8CCCC8)c7n6)nc5)CC4)C3)C2)n1 (stereo not shown) [CPD-124, 2-((6-(2-(4-(6-((6-Acetyl-8-cyclopentyl-5-methyl-7-oxo-7,8-dihydropyrido[2,3-d]pyrimidin-2-yl)amino)pyridin-3-yl)piperazin-1-yl)acetamido)spiro[3.3]heptan-2-yl)amino)-N-(6-cyclopropylpyridin-2-yl)-6-ethylnicotinamide] | 30 to 50 | 30 to 50
CNc1ccc(C(=O)Nc2cc(C(C)C)n(C)n2)c(NC2CC3(CC(NC(=O)CN4CCN(c5ccc(Nc6ncc7c(C)c(C(C)=O)c(=O)n(C8CCCC8)c7n6)nc5)CC4)C3)C2)n1 (stereo not shown) [CPD-95, 2-((6-(2-(4-(6-((6-Acetyl-8-cyclopentyl-5-methyl-7-oxo-7,8-dihydropyrido[2,3-d]pyrimidin-2-yl)amino)pyridin-3-yl)piperazin-1-yl)acetamido)spiro[3.3]heptan-2-yl)amino)-N-(5-isopropyl-1-methyl-1H-pyrazol-3-yl)-6-(methylamino)nicotinamide] | < 30 | < 30
CNc1ccc(C(=O)N(C)c2ccc(N(C)C)nn2)c(NCCCCCNC(=O)CN2CCN(c3ccc(Nc4ncc5c(C)c(C(C)=O)c(=O)n(C6CCCC6)c5n4)nc3)CC2)n1 [CPD-71, 2-((5-(2-(4-(6-((6-acetyl-8-cyclopentyl-5-methyl-7-oxo-7,8-dihydropyrido[2,3-d]pyrimidin-2-yl)amino)pyridin-3-yl)piperazin-1-yl)acetamido)pentyl)amino)-N-(6-(dimethylamino)pyridazin-3-yl)-N-methyl-6-(methylamino)nicotinamide] | < 30 | < 30
CNc1ccc(C(=O)Nc2ccc(N(C)C)nn2)c(NC2CC(CNC(=O)C3(CN4CCN(c5ccc(Nc6ncc7c(C)c(C(C)=O)c(=O)n(C8CCCC8)c7n6)nc5)CC4)CC3)C2)n1 (stereo not shown) [CPD-172, 2-((3-((1-((4-(6-((6-acetyl-8-cyclopentyl-5-methyl-7-oxo-7,8-dihydropyrido[2,3-d]pyrimidin-2-yl)amino)pyridin-3-yl)piperazin-1-yl)methyl)cyclopropane-1-carboxamido)methyl)cyclobutyl)amino)-N-(6-(dimethylamino)pyridazin-3-yl)-6-(methylamino)nicotinamide] | 50 to 80 | 50 to 80
CC(=O)c1c(C)c2cnc(Nc3ccc(N4CCN(CC(=O)NCCC5CC(Nc6cc(Cl)ccc6C(=O)Nc6ccc(N(C)C)nn6)C5)CC4)cn3)nc2n(C2CCCC2)c1=O (stereo not shown) [CPD-257, 2-((3-(2-(2-(4-(6-((6-Acetyl-8-cyclopentyl-5-methyl-7-oxo-7,8-dihydropyrido[2,3-d]pyrimidin-2-yl)amino)pyridin-3-yl)piperazin-1-yl)acetamido)ethyl)cyclobutyl)amino)-4-chloro-N-(6-(dimethylamino)pyridazin-3-yl)benzamide] | < 30 | 30 to 50

Reference: patent publication US20260297081A1, “COMPOUNDS AND METHODS OF TREATING CANCERS” (Cullgen Inc., priority 2023, published 2026)
